Measurements: patent publication US20080207632A1, “PROTEIN KINASE INHIBITORS” (SUPERGEN, INC., priority 2006, published 2008)
Like-named read-outs stand apart in the source and are kept apart here.

Assays:
Format in all cases: cell-based
[1] = system: Panc-1 (pancreas); assay: in vitro cytotoxicity assay (Cell-Titer-Glo), Panc-1; settings: Homo sapiens
Protocol: (§1) To evaluate cell killing of cancer cell lines, an in vitro cytotoxicity assay was performed. The tumor cell lines used were purchased from the American Type Culture Collection, and are identified as follows: Panc-1 (pancreas), MiaPaCa-2 (pancreas), MCF-7 (breast), HT-29 (colon), U2-OS (osteosarcoma), OVCAR-3 (ovary), HepG2 (hepatocellular carcinoma) and TT (medullary thyroid). The assay utilized the Cell-Titer-Glo Non-Radioactive Cell Proliferation Assay (Promega Corp., Madison, Wis.). First the cells were cultured in RPMI 1640 medium (Cat# 21870-076, Invitrogen Corporation) supplemented with 300 mg/L L-glutamine, 100 units/ml penicillin, 100 μg/ml streptomycin and 10% fetal bovine serum. All the cell lines were incubated in a humidified incubator at 37° C. with 5% CO2 atmosphere.
(§2) Cells were plated at a density of 2000 to 10000 cells per well, depending on their growth rate, in 0.09 mL medium on day 0 in 96-well Microlite TCT microtiter plates (7418, Thermo Labsystems, Franklin, Mass.). On day 1, 10 μL of serial dilutions of the individual compounds were added to the plates in replicates of 3. After incubation for 4 days at 37° C. in a humidified incubator, the cells were lysed in the Cell-Titer-Glo reagent, which also contains luciferase enzyme. The luciferase reaction utilizes ATP released from lysed cells to produce light, the intensity of which is linearly related to the amount of ATP. Thus, the amount of light produced is a reflection of the number of cells remaining in the well after drug treatment. This luminescence was measured using a Luminoskan luminometer (Thermo Electron Corp., Vantaa, Finland) Data were expressed as the percentage of survival of control cells calculated from the luminescence corrected for background. The surviving percent of cells was determined by dividing the mean luminescence values of the treated wells by the mean luminescence values of the control and multiplying by 100.
as §1, with “Briefly,” for “To evaluate cell killing of cancer cell lines, an in vitro cytotoxicity assay was performed. The”, “thyroid), PC-3 (prostate) and A549 (lung).” for “thyroid).”
as §1, with “carcinoma), PC-3 (prostate),” for “carcinoma)”, “A549 (lung).” for “TT (medullary thyroid).”
(§3) Cells were plated at a density of 2000 to 10000 cells per well, depending on their growth rate, in 0.09 mL medium on day 0 in 96-well Microlite TCT microtiter plates (#7418, Thermo Labsystems, Franklin, Mass.). On day 1, 10 μL of serial dilutions of the individual compounds were added to the plates in replicates of 3. After incubation for 4 days at 37° C. in a humidified incubator, the cells were lysed in the Cell-Titer-Glo reagent, which also contains luciferase enzyme. […]

[2] = system: MiaPaCa-2 (pancreas); assay: in vitro cytotoxicity assay (Cell-Titer-Glo), MiaPaCa-2; settings: Homo sapiens, MIA PaCa-2, 96 h, 4 days
Protocol: as §1, §2
as §1, with “Briefly,” for “To evaluate cell killing of cancer cell lines, an in vitro cytotoxicity assay was performed. The”, “thyroid), PC-3 (prostate) and A549 (lung).” for “thyroid).”
as §1, with “carcinoma), PC-3 (prostate),” for “carcinoma)”, “A549 (lung).” for “TT (medullary thyroid).”
as §3

[3] = system: MCF-7 (breast); assay: in vitro cytotoxicity assay (Cell-Titer-Glo), MCF-7; settings: Homo sapiens
Protocol: as §1, §2
as §1, with “Briefly,” for “To evaluate cell killing of cancer cell lines, an in vitro cytotoxicity assay was performed. The”, “thyroid), PC-3 (prostate) and A549 (lung).” for “thyroid).”
as §1, with “carcinoma), PC-3 (prostate),” for “carcinoma)”, “A549 (lung).” for “TT (medullary thyroid).”
as §3

[4] = system: HT-29 (colon); assay: in vitro cytotoxicity assay (Cell-Titer-Glo), HT-29; settings: Homo sapiens
Protocol: as §1, §2
as §1, with “Briefly,” for “To evaluate cell killing of cancer cell lines, an in vitro cytotoxicity assay was performed. The”, “thyroid), PC-3 (prostate) and A549 (lung).” for “thyroid).”
as §1, with “carcinoma), PC-3 (prostate),” for “carcinoma)”, “A549 (lung).” for “TT (medullary thyroid).”
as §3

[5] = system: U2-OS (osteosarcoma); assay: in vitro cytotoxicity assay (Cell-Titer-Glo), U2-OS; settings: Homo sapiens, U2OS
Protocol: as §1, §2
as §1, with “Briefly,” for “To evaluate cell killing of cancer cell lines, an in vitro cytotoxicity assay was performed. The”, “thyroid), PC-3 (prostate) and A549 (lung).” for “thyroid).”
as §1, with “carcinoma), PC-3 (prostate),” for “carcinoma)”, “A549 (lung).” for “TT (medullary thyroid).”
as §3

[6] = system: OVCAR-3 (ovary); assay: in vitro cytotoxicity assay (Cell-Titer-Glo), OVCAR-3; settings: Homo sapiens
Protocol: as §1, §2
as §1, with “Briefly,” for “To evaluate cell killing of cancer cell lines, an in vitro cytotoxicity assay was performed. The”, “thyroid), PC-3 (prostate) and A549 (lung).” for “thyroid).”
as §1, with “carcinoma), PC-3 (prostate),” for “carcinoma)”, “A549 (lung).” for “TT (medullary thyroid).”
as §3

[7] = system: HepG2 (hepatocellular carcinoma); assay: in vitro cytotoxicity assay (Cell-Titer-Glo), HepG2; settings: Homo sapiens, HepG2, 96 h, 4 days
Protocol: as §1, §2
as §1, with “Briefly,” for “To evaluate cell killing of cancer cell lines, an in vitro cytotoxicity assay was performed. The”, “thyroid), PC-3 (prostate) and A549 (lung).” for “thyroid).”
as §1, with “carcinoma), PC-3 (prostate),” for “carcinoma)”, “A549 (lung).” for “TT (medullary thyroid).”
as §3

[8] = system: PC-3 (prostate); assay: in vitro cytotoxicity assay (Cell-Titer-Glo), PC-3
Protocol: as §1, with “Briefly,” for “To evaluate cell killing of cancer cell lines, an in vitro cytotoxicity assay was performed. The”, “thyroid), PC-3 (prostate) and A549 (lung).” for “thyroid).”
as §2
as §1, with “carcinoma), PC-3 (prostate),” for “carcinoma)”, “A549 (lung).” for “TT (medullary thyroid).”
as §2, with “(#7418,” for “(7418,”, “100. […]” for “100.”

[9] = system: A549 (lung); assay: in vitro cytotoxicity assay (Cell-Titer-Glo), A549; settings: Homo sapiens
Protocol: as §1, with “Briefly,” for “To evaluate cell killing of cancer cell lines, an in vitro cytotoxicity assay was performed. The”, “thyroid), PC-3 (prostate) and A549 (lung).” for “thyroid).”
as §2
as §1, with “carcinoma), PC-3 (prostate),” for “carcinoma)”, “A549 (lung).” for “TT (medullary thyroid).”
as §2, with “(#7418,” for “(7418,”, “100. […]” for “100.”

[10] = PANC-1, 96 h, Example 20, 4 days, read-out: Cell-based IC50 values Panc-1
[11] = Example 20, read-out: Cell-based IC50 values MiaPaCa-2
[12] = MCF7, 96 h, Example 20, 4 days, read-out: Cell-based IC50 values MCF-7
[13] = HT-29, 96 h, Example 20, 4 days, read-out: Cell-based IC50 values HT-29
[14] = 96 h, Example 20, 4 days, read-out: Cell-based IC50 values U2-Os
[15] = OVCAR-3, 96 h, Example 20, 4 days, read-out: Cell-based IC50 values OVCAR-3
[16] = Example 20, read-out: Cell-based IC50 values HepG2
[17] = 96 h, Example 20, 4 days, read-out: Cell-based IC50 values PC-3
[18] = A549, 96 h, Example 20, 4 days, read-out: Cell-based IC50 values A549

SMILES | IC50 [1, 10] [µM] | IC50 [2, 11] [µM] | IC50 [3, 12] [µM] | IC50 [4, 13] [µM] | IC50 [5, 14] [µM] | IC50 [6, 15] [µM] | IC50 [7, 16] [µM] | IC50 [8, 17] [µM] | IC50 [9, 18] [µM] | other results
CC(=O)NS(=O)(=O)c1ccc(NC(=S)N2CCN(c3ncnc4[nH]c5cc(C(F)(F)F)c(Cl)cc5c34)CC2)cc1 [Compound 1-1, 4-(6-Chloro-7-trifluoromethyl-9H-pyrimido[4,5-b]indol-4-yl)-piperazine-1-carbothioic acid (4-acetylsulfamoyl-phenyl)-amide] | 37.5 | 18.6 | 14.6 | 5.01 | 13.2 | 13.1 | 26 | 52.3 | 53.8 | IC50 ([1]; PANC-1, 96 h, Example 18, 4 days, read-out: calculated IC50 Panc-1): 40.7 µM; IC50 ([1]; PANC-1, Table 10, 96 hours, read-out: IC50 Panc1 (inhibit cell growth to 50% of untreated)): 40.7 µM; IC50 ([2]; Example 18, read-out: calculated IC50 MiaPaCa-2): 66.6 µM; IC50 ([3]; MCF7, 96 h, Example 18, 4 days, read-out: calculated IC50 MCF-7): 22.5 µM; IC50 ([3]; MCF7, Table 10, 96 hours, read-out: IC50 MCF-7 (inhibit cell growth to 50% of untreated)): 22.5 µM; IC50 ([4]; HT-29, 96 h, Example 18, 4 days, read-out: calculated IC50 HT-29): 14.7 µM; IC50 ([4]; HT-29, Table 10, 96 hours, read-out: IC50 HT-29 (inhibit cell growth to 50% of untreated)): 14.7 µM; IC50 ([5]; 96 h, Example 18, 4 days, read-out: calculated IC50 U2-OS): 25.9 µM; IC50 ([5]; Table 10, 96 hours, read-out: IC50 U2-Os (inhibit cell growth to 50% of untreated)): 25.9 µM; IC50 ([6]; OVCAR-3, 96 h, Example 18, 4 days, read-out: calculated IC50 OVCAR-3): 25 µM; IC50 ([6]; OVCAR-3, Table 10, 96 hours, read-out: IC50 OVCAR-3 (inhibit cell growth to 50% of untreated)): 25 µM; IC50 ([7]; Example 18, read-out: calculated IC50 HepG2): 7.83 µM; IC50 ([8]; Table 10, 96 hours, read-out: IC50 PC-3 (inhibit cell growth to 50% of untreated)): 28.4 µM; IC50 ([9]; A549, Table 10, 96 hours, read-out: IC50 A549 (inhibit cell growth to 50% of untreated)): 19 µM
COc1cc2[nH]c3ncnc(N4CCN(C(=S)Nc5ccc(S(=O)(=O)NC(C)=O)cc5)CC4)c3c2cc1OC [Compound 1-2, 4-(6,7-Dimethoxy-9H-pyrimido[4,5-b]indol-4-yl)-piperazine-1-carbothioic acid (4-acetylsulfamoyl-phenyl)-amide] | 198 | 173 | 126 | 93.6 | 71.7 | 29.4 | 295 | 164 | 194 | 
CC(=O)NS(=O)(=O)c1ccc(NC(=S)N2CCN(c3ncnc4[nH]c5ccc(Cl)cc5c34)CC2)cc1 [Compound 1-3, 4-(6-chloro-9H-pyrimido[4,5-b]indol-4-yl)-piperazine-1-carbothioic acid (4-acetylsulfamoyl-phenyl)-amide] | 35.8 | 22.1 | 209 | 29.8 | 20.8 | 48 | 49.6 | 47.3 | 37 | 
CC(=O)NS(=O)(=O)c1ccc(NC(=S)N2CCN(c3ncnc4[nH]c5cc(F)ccc5c34)CC2)cc1 [Compound 1-4] | 136 | 85.2 | 249 | 103 | 36.3 | 79 | 88 | 160 | 72.7 | 
COc1cc2c(cc1O)[nH]c1ncnc(N3CCN(C(=S)Nc4ccc(S(=O)(=O)NC(C)=O)cc4)CC3)c12 [Compound 1-8] |  |  | 83.1 | 27.3 |  | 82.4 | 81.8 |  |  | 
